Activity calls are given as the source filed them.
Experiments:
Type in all cases: functional, organism-based
Anticarsia gemmatalis [1] = assay: Insecticidal activity against Anticarsia gemmatalis (velvetbean caterpillar) assessed as reduction in survival time at over 150 ppm
Anticarsia gemmatalis [2] = assay: Insecticidal activity against Anticarsia gemmatalis (velvetbean caterpillar) assessed as reduction in survival time at > 100 ppm
Anticarsia gemmatalis [3] = assay: Insecticidal activity against Anticarsia gemmatalis (velvetbean caterpillar) assessed as specific amidolytic and esterolytic activity in midgut at 9.5 ppm
Anticarsia gemmatalis [4] = assay: Insecticidal activity against Anticarsia gemmatalis (velvetbean caterpillar) assessed as sharp decline in proteolytic activity in midgut using L-BApNA and L-TAME at 9.5 ppm
Anticarsia gemmatalis [5] = assay: Increase in protein digestibility in Anticarsia gemmatalis (velvetbean caterpillar) assessed as double the consumption at 76 ppm
Anticarsia gemmatalis [6] = assay: Effect on diet consumption in Anticarsia gemmatalis (velvetbean caterpillar) assessed as double the consumption at 76 ppm relative to control
Anticarsia gemmatalis [7] = assay: Insecticidal activity against Anticarsia gemmatalis (velvetbean caterpillar) assessed as decrease in pupa weight upto 80 ppm
Anticarsia gemmatalis [8] = assay: Insecticidal activity against Anticarsia gemmatalis (velvetbean caterpillar) assessed as prolongation of larval development upto 76 ppm
Anticarsia gemmatalis [9] = assay: Insecticidal activity against Anticarsia gemmatalis (velvetbean caterpillar) assessed as reduction in survival at > 76 ppm for more than 15 days

N=C(N)c1ccc(/N=N/Nc2ccc(C(=N)N)cc2)cc1
active: inhibition (Anticarsia gemmatalis [1]) | inhibition (Anticarsia gemmatalis [2]) | inhibition (Anticarsia gemmatalis [3]) | inhibition (Anticarsia gemmatalis [4]) | Activity (Anticarsia gemmatalis [5]) | Activity (Anticarsia gemmatalis [6]) | inhibition (Anticarsia gemmatalis [7]) | Activity (Anticarsia gemmatalis [8]) | inhibition (Anticarsia gemmatalis [9])

Source: ChEMBL document CHEMBL3044562, “Survival and developmental impairment induced by the trypsin inhibitor bis-benzamidine in the velvetbean caterpillar (Anticarsia gemmatalis)” (Crop Prot, 2011)
